Reference: patent US11110070B2 (priority 2015, dated 2021)
Entries after “also recorded” stand apart in the source; their conditions may differ.

Tested on: 129S6/SvEvTac mice
Assay: 3-shock CFC, extinction and reinstatement paradigm
Assay type: in vivo
Experimental: A single injection of saline (0.9% NaCl) far ketamine (30 mg kg^−1) (Ketaset III, Ketamine HCl injection, Fort Dodge Animal Health, Forth Dodge, Iowa) was administered once during the course of each experiment.
A 3-shock CFC paradigm was administered as previously described (Drew et al., 2010; Denny et al., 2014). Mice were placed in the conditioning chamber and received 3 shocks 180, 240, and 300 s later (2 s, 0.75 mA) and were removed 15 s following the last shock. All sessions were scored for freezing using FreezeView2http://actimetrics.com/downloads/freezeframe/).
Extinction began 4 days after the initial 3-shock CFC procedure, or 4 days after the reinstatement procedure. Each group of mice was subjected to 2 extinction trials per day. Each extinction trial lasted 30 min, with an intertrial interval of at least 2 h. For each extinction trial, mice were placed in the same box used for CFC without receiving foot shocks. All trials were scored for freezing. The freezing presented throughout the text represents averaged freezing behavior for the first 3 min of each extinction trial.
Reinstatement took place in the same Coulbourn fear conditioning box, but with altered cues. A 1-shock CFC paradigm was administered as previously described (Drew et al., 2010; Denny et al., 2012; Denny et al., 2014), with the exception of two experiments in which the mice were administered 3 shocks.

[1] = ketamine 1 week before CFC, vs saline

SMILES: CNC1(c2ccccc2Cl)CCCCC1=O (racemic) [ketamine, (RS)-2-(2-chlorophenyl)-2-(methylamino)cyclohexanone]
- freezing during 3-shock CFC training (ketamine 30 mg kg^−1 1 week before CFC, vs saline): comparable levels of freezing
- fear response (freezing) during CFC training (ketamine 1 month before CFC): did not result in a decreased fear response
- freezing behavior during extinction (ketamine 1 month before CFC): did not alter freezing behavior during extinction
- fear, first trial of extinction vs first trial of re-extinction (E1 vs. E9) [1]: significantly decreased levels of fear
- freezing during the first extinction exposure [1]: significantly less freezing behavior
- fear expression during extinction training (ketamine 1 week following CFC, 1 week prior to extinction): did not alter fear expression during extinction training; also recorded: equal levels of freezing behavior during all extinction trials
- subsequent fear expression (reinstatement, secondary extinction) (ketamine 1 week prior to 1-shock reinstatement (24 h after the last extinction trial)): did not alter subsequent fear expression; also recorded: equal levels of freezing behavior during reinstatement and during secondary extinction trials
- fear expression (reinstatement, secondary extinction) (ketamine 1 week prior to 3-shock reinstatement): did not alter fear expression; also recorded: comparable levels of fear behavior
- fear expression during the first re-exposure (ketamine 1 h after 3-shock reinstatement): buffered fear expression during the first re-exposure
- freezing throughout secondary extinction (ketamine 1 h after 3-shock reinstatement, vs saline): transiently decreased freezing throughout extinction; also recorded: decreased fear
- freezing during extinction (ketamine 1 h before CFC): froze comparably during extinction; also recorded: equal levels of freezing behavior during almost all extinction trials
- subsequent fear expression (secondary extinction trials) (ketamine 1 h following 1-shock reinstatement): did not alter subsequent fear expression; also recorded: comparable levels of fear behavior during secondary extinction trials
- fear expression during extinction (ketamine 1 h following 3-shock CFC training): did not alter fear expression during extinction; also recorded: equal levels of freezing behavior during all extinction trials
- fear expression during extinction training (ketamine 1 h prior to extinction): did not alter fear expression during extinction training; also recorded: equal levels of freezing behavior during all extinction trials
- freezing behavior during extinction (ketamine 24 h before CFC): did not alter
- subsequent fear expression (secondary extinction trials) (ketamine 24 h following 3-shock reinstatement): did not alter subsequent fear expression; also recorded: comparable levels of freezing behavior
